The IC50 is the concentration that gives 50% inhibition.

Experimental findings from US20240262806A1, “INHIBITORS OF NLRP3” (PTC THERAPEUTICS, INC., priority 2021, published 2024) are described below.

The first assay relates to NLRP3 inflammasome. The assay is described as follows: IL-1β Secretion Assay (NLRP3-dependent IL-1β secretion in PMA-differentiated THP-1 cells, nigericin activation, HTRF). Format: cell-based. To be noted: Homo sapiens, THP-1, THP-1 cells, 100 ng/mL PMA 24 h, compound 20 h, 2.5 μM Nigericin 3 h; read-out: IC50 IL-1β Inhibition. The essentials: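 IL-1β release, quantified by HTRF after nigericin activation of the NLRP3 inflammasome, was the read-out. A logistic fit of percent inhibition gave IC50.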
Background: TR-FRET usually uses a lanthanide donor and a delayed reading to cut background.
For the compound `CN1CCCC[C@H](Nc2nnc(-c3ccc(C(F)(F)F)cc3O)c3ccncc23)C1` [Compound I-186], the IC50 lay in the range of 10 to 100 nM.

Regarding `CN1CCCC[C@@H](Nc2nnc(-c3ccc(C(F)(F)F)cc3O)c3ccncc23)C1` [Compound I-187], the IC50 was below 1 nM.

Regarding `CN1CCC[C@@H](Nc2nnc(-c3ccc(C(F)(F)F)cc3OC3COC3)c3cnccc23)C1` [Compound I-188], the IC50 was in the range of 10 to 100 nM.

Turning to `CN1CCC[C@@H](Nc2nnc(-c3ccc(C(F)(F)F)cc3-c3cnn(C)c3)c3cnccc23)C1` [Compound I-189], the IC50 lay within 10 to 100 nM.

As to `CN1CCC[C@@H](Nc2nnc(-c3ccc(C(F)(F)F)cc3CO)c3ccncc23)C1` [Compound I-190], the IC50 was in the range of 10 to 100 nM.

On to `CN1CCC[C@@H](Nc2nnc(-c3ccc(OC(F)(F)F)cc3OC(F)F)c3ccncc23)C1` [Compound I-191], for which the IC50 was 1 to 10 nM.

With `CN1CCC[C@@H](Nc2nnc(-c3ccc(C(F)(F)F)cc3S(C)(=O)=O)c3ccncc23)C1` [Compound I-192], the IC50 is 10 to 100 nM.

Regarding `CN1CCC[C@@H](Nc2nnc(-c3ccc(C(F)(F)F)cc3-c3cn[nH]c3)c3ccncc23)C1` [Compound I-193], the IC50 was 10 to 100 nM.

On to `CN1CCC[C@@H](Nc2nnc(-c3ccc(C(F)(F)F)cc3C3CC3)c3ccncc23)C1` [Compound I-194, (R)-1-(2-Cyclopropyl-4-(trifluoromethyl)phenyl)-N-(1-methylpiperidin-3-yl)pyrido[3,4-d]pyridazin-4-amine], for which the IC50 lay within 1 to 10 nM.

Take `Cc1cnc(-c2nnc(N[C@@H]3CCCN(C)C3)c3cnccc23)c(O)c1` [Compound I-195]: the IC50 is 1 to 10 nM.

`CN1CCC[C@@H](Nc2nnc(-c3c(O)cc(C4CC4)cc3F)c3ccncc23)C1` [Compound I-196]: the IC50 was below 1 nM.

Consider `CN1CCC[C@@H](Nc2nnc(-c3c(O)cc(C(F)(F)F)cc3F)c3ccncc23)C1` [Compound I-197], for which the IC50 is below 1 nM.

As for `Cc1cc(Cl)cc(F)c1-c1nnc(N[C@@H]2CCCN(C)C2)c2cnccc12` [Compound I-198], the IC50 lay in the range of 10 to 100 nM.

As for `COc1cc(C(F)(F)F)ccc1-c1nnc(N[C@H]2CN3CCC2CC3)c2cnccc12` [Compound I-199], the half-inhibitory concentration (IC50) was 10 to 100 nM.

For `CN1CCC[C@@H](Nc2nnc(-c3ccc(-c4ncccn4)cc3O)c3ccncc23)C1` [Compound I-200], the IC50 was 1 to 10 nM.

With `COc1cc(C(F)(F)F)ccc1-c1nnc(N2CCC(N(C)C)CC2)c2cnccc12` [Compound I-201], the IC50 lay within 10 to 100 nM.

As for `CN1CCC[C@@H](Nc2nnc(-c3ccc(C(F)(F)F)cc3-c3ccccc3)c3ccncc23)C1` [Compound I-202], the IC50 lay within 10 to 100 nM.

As to `CN(C)CC1CCN(c2nnc(-c3ccc(C(F)(F)F)cc3O)c3ccccc23)C1` (stereo not shown) [Compound I-203], the IC50 fell in the range of 10 to 100 nM.

As to `Cc1cc(C)c(-c2nnc(N[C@@H]3CCCN(C)C3)c3cnccc23)c(C)c1` [Compound I-205], the IC50 was in the range of 1 to 10 nM.

For `OCCN1CCC[C@@H](Nc2nnc(-c3ccc(C(F)(F)F)cc3OC(F)F)c3ccncc23)C1` [Compound I-206, 2-[(3R)-3-[[1-[2-(Difluoromethoxy)-4-(trifluoromethyl)phenyl]pyrido[3,4-d]pyridazin-4-yl]amino]-1-piperidyl]ethanol], the IC50 was below 1 nM.

As for `CC(C)c1ccc(-c2nnc(N[C@@H]3CCCN(C)C3)c3cnccc23)c(C(C)C)c1` [Compound I-207], the IC50 lay in the range of 1 to 10 nM.

For the compound `COc1c(C2CC2)ccc(F)c1-c1nnc(N[C@@H]2CCCN(C)C2)c2cnccc12` [Compound I-208], the IC50 lay within 10 to 100 nM.

In the case of `CN1CCC[C@@H](Nc2nnc(-c3c(F)ccc(C4CC4)c3O)c3ccncc23)C1` [Compound I-210], the 50% inhibitory concentration (IC50) fell in the range of 10 to 100 nM.

As for `CN1CCC(Nc2nnc(-c3ccc(C(F)(F)F)cc3O)c3ccncc23)CC12CC2` (stereo not shown) [Compound I-212], the IC50 was 10 to 100 nM.

For `COc1cc(C(F)(F)F)ccc1-c1nnc(NC2CC3CCC(C3)N2C)c2cnccc12` (stereo not shown) [Compound I-213], the IC50 was in the range of 100 to 300 nM.

In the case of `CN1CCC[C@@H](Nc2nnc(-c3ccc(C(F)(F)F)cc3CC(F)(F)F)c3ccncc23)C1` [Compound I-214, (R)—N-(1-Methylpiperidin-3-yl)-1-(2-(2,2,2-trifluoroethyl)-4-(trifluoromethyl)-phenyl)pyrido[3,4-d]pyridazin-4-amine], the IC50 was below 1 nM.

`Oc1cc(C(F)(F)F)ccc1-c1nnc(N[C@@H]2CCCN(C3CC3)C2)c2cnccc12` [Compound I-215, 2-[4-[[(3R)-1-cyclopropyl-3-piperidyl]amino]pyrido[3,4-d]pyridazin-1-yl]-5-(trifluoromethyl)phenol]: the IC50 is below 1 nM.

Regarding `Cc1ccc(-c2nnc(N[C@@H]3CCCN(C)C3)c3cnccc23)c(C)c1` [Compound I-216], the IC50 lay within 1 to 10 nM.

As to `Cc1cc(C#N)ccc1-c1nnc(N[C@@H]2CCCN(C)C2)c2cnccc12` [Compound I-217], the IC50 lay within 10 to 100 nM.

`Cc1cc(Cl)cc(C)c1-c1nnc(N[C@@H]2CCCN(C)C2)c2cnccc12` [Compound I-218]: the concentration for half-maximal inhibition (IC50) is below 1 nM.

For `O=C(c1ccc(-c2nnc(N[C@@H]3CCCNC3)c3ccccc23)c(O)c1)C(F)(F)F` [Compound I-220], the IC50 lay in the range of 100 to 300 nM.

As for `CN1CCC[C@@H](Nc2nnc(-c3c(F)cc(Cl)cc3F)c3ccncc23)C1` [Compound I-221], the IC50 lay in the range of 1 to 10 nM.

Turning to `Cc1cc(C(F)(F)F)cc(F)c1-c1nnc(N[C@@H]2CCCN(C)C2)c2cnccc12` [Compound I-222], the IC50 fell in the range of 1 to 10 nM.

As for `CN1CCC(Nc2nnc(-c3ccc(C(F)(F)F)cc3O)c3ccncc23)CC1` [Compound I-224], the IC50 lay within 10 to 100 nM.

As for `C#Cc1ccc(-c2nnc(N[C@@H]3CCCN(C)C3)c3ccccc23)c(O)c1` [Compound I-226, (R)-5-ethynyl-2-(4-((1-methylpiperidin-3-yl)amino)phthalazin-1-yl)phenol], the half-inhibitory concentration (IC50) is below 1 nM.

As to `CC#Cc1ccc(-c2nnc(N[C@@H]3CCCN(C)C3)c3ccccc23)c(O)c1` [Compound I-227], the IC50 was below 1 nM.

`CC#Cc1cc(C(F)(F)F)ccc1-c1nnc(N[C@@H]2CCCN(C)C2)c2cnccc12` [Compound I-228, (R)—N-(1-methylpiperidin-3-yl)-1-(2-(prop-1-yn-1-yl)-4-(trifluoromethyl)phenyl)pyrido[3,4-d]pyridazin-4-amine]: the IC50 lay in the range of 1 to 10 nM.

Take `Oc1cc(C(F)(F)F)ccc1-c1nnc(NC2CNCCOC2)c2ccncc12` (stereo not shown) [Compound I-230]: the IC50 lay in the range of 10 to 100 nM.

On to `FC(F)Oc1cc(C(F)(F)F)ccc1-c1nnc(N[C@@H]2CCCNC2)c2ccncc12` [Compound I-231], for which the half-maximal inhibitory concentration (IC50) fell in the range of 10 to 100 nM.

As for `CN1CCC[C@@H](Nc2nnc(-c3ccc(C(F)(F)F)cc3-c3ccn(C)n3)c3ccncc23)C1` [Compound I-232], the IC50 lay within 10 to 100 nM.

With `COc1cc(C(F)F)ccc1-c1nnc(N[C@@H]2CCCN(C)C2)c2cnccc12` [Compound I-234], the IC50 lay in the range of 10 to 100 nM.

As to `CCN1CCC[C@@H](Nc2nnc(-c3ccc(C(F)(F)F)cc3OC(F)F)c3cnccc23)C1` [Compound I-235], the IC50 was in the range of 1 to 10 nM.

As to `CN1CCC[C@@H](Nc2nnc(-c3ccc(C(F)(F)F)cc3OC(F)F)c3c2CCC3)C1` [Compound I-236], the IC50 fell in the range of 1 to 10 nM.

For the compound `CN1CCC[C@@H](Nc2nnc(-c3ccc(OC4CC4)cc3O)c3ccncc23)C1` [Compound I-237, (R)-5-Cyclopropoxy-2-(4-((1-methylpiperidin-3-yl)amino)pyrido[3,4-d]pyridazin-1-yl)phenol], the half-inhibitory concentration (IC50) lay in the range of 1 to 10 nM.

Regarding `OCCN1CCC[C@@H](Nc2nnc(-c3ccc(C(F)(F)F)cc3OC(F)F)c3cnccc23)C1` [Compound I-238], the IC50 was 10 to 100 nM.

Regarding `CN1CCC[C@@H](Nc2nnc(-c3ccc(Cl)cc3C(F)F)c3ccncc23)C1` [Compound I-239], the IC50 was in the range of 1 to 10 nM.

Consider `CN1CCC[C@@H](Nc2nnc(-c3ccc(C(F)(F)F)cc3-c3cccnc3)c3ccncc23)C1` [Compound I-240], for which the 50% inhibitory concentration (IC50) lay in the range of 100 to 300 nM.

Consider `CN1CCC[C@@H](Nc2nnc(-c3ccc(Cl)cc3OC(F)F)c3c2CCC3)C1` [Compound I-241], for which the IC50 fell in the range of 10 to 100 nM.

`CN1CCCCC1CNc1nnc(-c2ccc(C(F)(F)F)cc2O)c2ccncc12` (stereo not shown) [Compound I-243]: the IC50 was 1 to 10 nM.

As to `Cc1ccc(-c2nnc(N[C@@H]3CCCN(C)C3)c3c2CCC3)c(OC(F)F)c1` [Compound I-244], the IC50 was in the range of 10 to 100 nM.

`CN1CCC[C@@H](Nc2nnc(-c3ccccc3OC(F)F)c3c2CCC3)C1` [Compound I-245]: the half-inhibitory concentration (IC50) was in the range of 1 to 10 nM.

`CN1CCC[C@@H](Nc2nnc(-c3ccc(C4CC4)cc3OC(F)F)c3c2CCC3)C1` [Compound I-246]: the 50% inhibitory concentration (IC50) lay in the range of 10 to 100 nM.

Regarding `CN1CCC[C@@H](Nc2nnc(-c3ccc(C4CC4)cc3OC(F)F)c3ccncc23)C1` [Compound I-247], the IC50 lay in the range of 1 to 10 nM.

As to `CN1CCC[C@@H](Nc2nnc(-c3ccc(C4CC4)cc3C(F)F)c3ccncc23)C1` [Compound I-248], the IC50 is 1 to 10 nM.

`CN1CCC[C@@H](Nc2nnc(-c3ccc(C(F)F)cc3F)c3ccncc23)C1` [Compound I-249]: the IC50 lay within 10 to 100 nM.

`CN1CCC[C@@H](Nc2nnc(-c3ccc(C(F)(F)F)cc3O)c3cscc23)C1` [Compound I-250]: the IC50 was below 1 nM.

On to `COc1cc(C(F)(F)F)ccc1-c1nnc(N[C@@H]2CCCCNC2)c2cnccc12` [Compound I-251], for which the IC50 fell in the range of 100 to 300 nM.

Consider `Oc1cc(C(F)(F)F)ccc1-c1nnc(N[C@H]2CNCCOC2)c2cnccc12` [Compound I-252], for which the IC50 lay in the range of 10 to 100 nM.

As to `Oc1cc(C(F)(F)F)ccc1-c1nnc(NC2CCCNCC2)c2cnccc12` (stereo not shown) [Compound I-253], the IC50 lay within 1 to 10 nM.

Still in this assay, the particulars now being: THP-1 cells, 100 ng/mL PMA 24 h, compound 20 h, 2.5 μM Nigericin 3 h; read-out: IC50 IL-1β Inhibition.
With `CN1CCC[C@@H](Nc2nnc(-c3c(F)ccc(Cl)c3O)c3ccncc23)C1` [Compound I-209], the IC50 lay within 1 to 10 nM.

As for `CN1CCC[C@@H](Nc2nnc(-c3c(F)ccc(Cl)c3O)c3ccncc23)C1` [Compound I-211], the IC50 was 10 to 100 nM.
